{"source": "patent US20030232383A1", "about": "“Novel reagentless sensing system for measuring carbohydrates based on the galactose/glucose binding protein” (priority 2001, published 2003)", "key": {"[1]": {"target": "calcium binding site of GBP (Escherichia coli, UniProt P0AEE5)", "sequence (P0AEE5 24-332 limits assumed)": "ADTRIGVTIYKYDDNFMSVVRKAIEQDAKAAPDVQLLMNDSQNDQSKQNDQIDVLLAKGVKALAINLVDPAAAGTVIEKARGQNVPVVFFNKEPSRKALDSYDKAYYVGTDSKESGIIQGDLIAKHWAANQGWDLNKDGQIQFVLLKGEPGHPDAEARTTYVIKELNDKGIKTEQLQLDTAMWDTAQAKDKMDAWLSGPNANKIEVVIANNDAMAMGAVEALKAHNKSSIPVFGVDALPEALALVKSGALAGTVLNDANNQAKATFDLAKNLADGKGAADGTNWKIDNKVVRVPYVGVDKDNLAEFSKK", "conditions": "Vyas et al. 1989, cited from earlier work"}, "[2]": {"target": "GBP mutant M182C (Met182Cys) (Escherichia coli, UniProt P0AEE5, M205C)", "sequence (P0AEE5 24-332 M205C)": "as the sequence (P0AEE5 24-332 limits assumed) above, with M182C counted along it", "assay": "Steady-state fluorescence of fluorophore-labeled GBP mutant M182C on ligand binding", "design": "species or system E. coli", "method": "Labeling the mutants of GBP with fluorescent probes. The mutant protein was first dialysed three times against either 10 mM Tris-HCl, 1 mM DTT, 0.2 mM CaCl2, pH 8.0 (for reaction with MDCC) or 10 mM HEPES, 1 mM DTT, 0.2 mM CaCl2, pH 7.4 (for reaction with acrylodan, 1,5-IAEDANS, or IANBD ester). DTT was present in the buffers to reduce any disulfide linkages that may have formed between two protein molecules. The protein was then dialysed three times against the respective buffers (with no DTT) to remove excess of the reducing agent. For the conjugation reaction, a molar ratio of fluorophore to protein of 5:1 was employed. The fluorophores were added slowly to the mutants of GBP (μM concentrations) so as to allow the cysteine residue on all the protein molecules to have an equal opportunity to react with the fluorophore. The solution was stirred constantly in a glass reaction vessel and in the dark for 4 h at 4° C. […]\nSteady-state fluorescence studies of the fluorophore-labeled mutant proteins. […] The concentrations of labeled proteins used in the steady-state fluorescence studies were in the 1×10^−7 M range. […] The samples were analyzed in the spectrofluorometer under the aforementioned parameters. Calibration plots were obtained by relating the average fluorescence change with the concentration of glucose or galactose in the sample."}, "[3]": {"target": "GBP mutant G148C (Gly148Cys) (Escherichia coli, UniProt P0AEE5, G171C)", "sequence (P0AEE5 24-332 G171C limits assumed)": "as the sequence (P0AEE5 24-332 limits assumed) above, with G148C counted along it", "type": "binding, E. coli", "method": "(§1) Labeling the mutants of GBP with fluorescent probes. The mutant protein was first dialysed three times against either 10 mM Tris-HCl, 1 mM DTT, 0.2 mM CaCl2, pH 8.0 (for reaction with MDCC) or 10 mM HEPES, 1 mM DTT, 0.2 mM CaCl2, pH 7.4 (for reaction with acrylodan, 1,5-IAEDANS, or IANBD ester). DTT was present in the buffers to reduce any disulfide linkages that may have formed between two protein molecules. The protein was then dialysed three times against the respective buffers (with no DTT) to remove excess of the reducing agent. For the conjugation reaction, a molar ratio of fluorophore to protein of 5:1 was employed. The fluorophores were added slowly to the mutants of GBP (μM concentrations) so as to allow the cysteine residue on all the protein molecules to have an equal opportunity to react with the fluorophore. The solution was stirred constantly in a glass reaction vessel and in the dark for 4 h at 4° C. (with MDCC and acrylodan) or for 2-3 h at RT (with 1,5-IAEDANS or IANBD ester). The conjugated protein was separated from the free fluorophore by running the sample through a Sephadex G-25 column and eluting with the respective buffer.\n(§2) Steady-state fluorescence studies of the fluorophore-labeled mutant proteins. The excitation and emission monochromator slit widths were both set at 2 mm. The excitation and emission wavelengths for MDCC, acrylodan, 1,5-IAEDANS, and IANBD ester were 425 nm and 475 nm, 382 nm and 509 nm, 336 nm and 490 nm, and 472 nm and 536 nm, respectively. All data were obtained at RT using quartz cuvettes with sample volumes of 1.5-2 mL. The concentrations of labeled proteins used in the steady-state fluorescence studies were in the 1×10^−7 M range. The conjugates were incubated with various concentrations of glucose and galactose for 15-20 min at RT on a shaker at 400 rpm. The samples were analyzed in the spectrofluorometer under the aforementioned parameters. Calibration plots were obtained by relating the average fluorescence change with the concentration of glucose or galactose in the sample."}, "[4]": {"target": "GBP mutant H152C (His152Cys) (Escherichia coli, UniProt P0AEE5, H175C)", "sequence (P0AEE5 24-332 H175C limits assumed)": "as the sequence (P0AEE5 24-332 limits assumed) above, with H152C counted along it", "type": "binding, E. coli", "method": "as §1, §2"}, "GBP labeled with D-22": {"target": "GBP labeled with D-22 (Escherichia coli, UniProt P0AEE5)", "sequence (P0AEE5 24-332 limits assumed)": "as the sequence (P0AEE5 24-332 limits assumed) above", "assay": "Steady-state fluorescence of D-22-labeled (dansylated) GBP", "type": "binding, E. coli", "conditions": "addition of 1.6×10^−4 M sugar; protein to fluorophore 1:50, 1:100, 1:200", "method": "Labeling GBP with D-22. GBP was dialysed three times against 0.1 M NaHCO3, pH 9.0. Three conjugation reactions with protein to fluorophore mole ratios of 1:50, 1:100, and 1:200 were carried out. Three microvials, each containing GBP, were placed in an ice bath. The fluorophore was added to the vials in small increments while the solution was being stirred. The mixture was allowed to react in the dark at 4° C. for 1 h. To eliminate the excess of unbound D-22, size exclusion chromatography was employed. A D-Salt Polyacrylamide 6000 desalting column was equilibrated with 10 mM Tris-HCl, pH 8.0. The conjugates were loaded onto the column. Elution of the labeled protein was conducted with the equilibration buffer and the conjugate finally dialysed three times against 10 mM Tris-HCl, pH 8.0.\nSteady-state fluorescence studies of the labeled GBP. Fluorescence measurements were conducted with sample volumes of 1.5 mL and in quartz cuvettes. After the addition of 30 μL of D-(+)-galactose and D-(+)-glucose to the conjugate, the solution was allowed to incubate for 15 min at 4° C. while mixing at 400 rpm. The excitation and emission monochromator slit widths were set at 2 mm. The excitation wavelength was 350 nm and emission was detected at 475 nm."}, "GBP": {"target": "GBP (Escherichia coli, UniProt P0AEE5)", "sequence (P0AEE5 24-332)": "as the sequence (P0AEE5 24-332 limits assumed) above", "conditions": "Miller et al. 1983; read-out: dissociation constants, Kd; cited from earlier work"}}, "note": "Like-named read-outs stand apart in the source and are kept apart here.", "data": [{"compound": "[Tb+3]", "note": "[terbium]", "values": [{"measurement": "dissociation rate", "setting": "[1]", "value": 0.001, "unit": "s⁻¹"}]}, {"compound": "[Ca+2]", "note": "[calcium]", "values": [{"measurement": "Kd", "setting": "[1]; read-out: dissociation constant", "value": 2, "unit": "µM"}]}, {"compound": "O=C[C@H](O)[C@@H](O)[C@@H](O)[C@H](O)CO", "note": "[Galactose, D-(+)-galactose]", "values": [{"measurement": "% quenching", "setting": "[2]; M182C labeled with Acrylodan", "value": 5, "unit": "%"}, {"measurement": "% quenching", "setting": "[2]; M182C labeled with MDCC", "value": 6, "unit": "%"}, {"measurement": "% quenching", "setting": "[3]; G148C labeled with IAEDANS", "value": 7, "unit": "%"}, {"measurement": "% quenching", "setting": "[3]; G148C labeled with MDCC", "value": 16, "unit": "%"}, {"measurement": "% quenching", "setting": "[4]; H152C labeled with IANBD", "value": 4, "unit": "%"}, {"measurement": "% quenching", "setting": "[4]; H152C labeled with MDCC", "value": 19, "unit": "%"}, {"measurement": "change of fluorescence signal of dansylated GBP", "setting": "GBP labeled with D-22", "value": "quenching of the fluorescence signal"}, {"measurement": "Kd", "setting": "GBP", "value": 400, "unit": "µM"}]}]}
